The values that follow come from patent publication US10441536B2, “Micronized colistimethane sodium pharmaceutical compositions” (Forest Laboratories Holdings Limited, priority 2013, dated 2019).

The format of data set [1] is in vivo, patients. The method, then: In one clinical trial, the absorption of the powdered colistimethate sodium into the airways of the lungs was measured (specific airway conductance). […] This is a very high uptake, and more than would be expected from a powdered drug. […] In a second trial, patients were given a premedication dose of 200 micrograms of salbutamol. […] In an alternative medication regime, the salbutamol can be mixed into the same capsule as the colistin sulphomethate sodium.

For data set [2] the following is noted: in vivo; cited from earlier work.
Data set [3] has as its system gram negative microbial organisms. As to the kind of experiment: Synergy of activity of the mixture of components. It counts as cell-based. An excerpt: Colistimethate sodium is a negatively charged molecular ion with positively charged sodium counter ions. […] There are five sulphomethate groups (CH2—OS02^−). U.S. Pat. No. 5,767,068 refers to variable groups Rx and R2; Rx is identified as 6-methyloctanoyl or 6-methylheptanoyl, and R2 as sec-butyl, isobutyl or isopropyl.

Data set [4] is described as follows: Water content (Karl-Fisher) of colistimethate sodium powder and gelatin capsules in various storage conditions. The settings on record: n = 3. More on the design: unit not given here. The data set is classed as physicochemical. The protocol: Aliquots of colistimethate sodium encapsulated in gelatin capsules were stored in relative humidity ranging from about 20% RH to about 80% RH at ambient temperature conditions. Encapsulated colistimethate sodium was tested for moisture content and piercing performance at several time points. For example, the capsules were tested at 23° C. at 30% RH, 23° C. at 40% RH, 23° C. at 48% RH, 23° C. at 75% RH at different time points such as 1, 2, 4, and 24 hrs. Storage conditions were generated using qualified stability chambers set at the target temperature 23° C.±2° C. and the set relative humidity ±5% RH. Ambient laboratory conditions were determined to be at about 23° C.±2° C., 48% RH. Ambient conditions were verified using calibrated NIST thermo-Hygrometers. Average moisture content of colistimethate sodium as well as the moisture content of gelatin capsules was determined using Karl-Fisher determination.

With `CC(C)(C)NCC(O)c1ccc(O)c(CO)c1` (stereo not shown) [salbutamol], in data set [1] (premedication dose of 200 micrograms, second trial), the airway conductance entry is “appeared to improve airway conductance”.
With “colistin sulphomethate sodium [colistimethate sodium]”, the “irritation of the lungs” value in data set [1] (human, in vivo) was “does not cause irritation”. Besides, in data set [1] (human, in vivo), the “specific airway conductance, whole body plethysmography, compared with traditional nebulised colistimethate sodium” value is “did not show any noticeable difference”. Further, the “absorption into the bloodstream” value in data set [2] is on record as “poorly absorbed”. The “activity of the mixture of components against gram negative microbial organisms” value in data set [3] is “synergy of activity”. The “Water Content (KF)” value is recorded as 5.44 in data set [4] (23° C./30% RH, 0 hr); 5.28 in data set [4] (23° C./30% RH, 1 hr); 5.85 in data set [4] (23° C./30% RH, 2 hr); 5.94 in data set [4] (23° C./30% RH, 4 hr); 6.54 in data set [4] (23° C./30% RH, 24 hr); 5.44 in data set [4] (23° C./40% RH, 0 hr). For the same molecule, the “Water Content (KF)” value came out at 5.96 in data set [4] (23° C./40% RH, 1 hr); 5.81 in data set [4] (23° C./40% RH, 2 hr); 6.51 in data set [4] (23° C./40% RH, 4 hr); 6.50 in data set [4] (23° C./40% RH, 9 hr); 9.54 in data set [4] (23° C./40% RH, 24 hr); 5.44 in data set [4] (23° C./48% RH, 0 hr). In addition, the “Water Content (KF)” value in data set [4] (23° C./48% RH, 1 hr) came out at 5.68; in data set [4] (23° C./48% RH, 2 hr) it was 6.39; in data set [4] (23° C./48% RH, 4 hr), 6.64; in data set [4] (23° C./48% RH, 24 hr), 14.49; in data set [4] (23° C./75% RH, 0 hr) it was 5.44; in data set [4] (23° C./75% RH, 1 hr) it was 7.04. In addition, the “Water Content (KF)” value in data set [4] (23° C./75% RH, 2 hr) is on record as 6.96; in data set [4] (23° C./75% RH, 4 hr), 10.74.
